According to ChEMBL document CHEMBL2057148, “Synthesis of a Microcystis aeruginosa predicted metabolite with antimalarial activity” (Bioorg Med Chem Lett, 2012):

Key:
Plasmodium falciparum [1] = experiment: Antimalarial activity against chloroquine-resistant Plasmodium falciparum K1 infected in human A-positive type erythrocytes assessed as [3H]hypoxanthine incorporation after 24 hrs by scintillation counting; type: functional, organism-based
Plasmodium falciparum [2] = experiment: Ratio of IC50 for aerucyclamide B to compound IC50 for chloroquine-resistant Plasmodium falciparum K1 infected in human A-positive type erythrocytes assessed as [3H]hypoxanthine incorporation after 24 hrs by scintillation counting; type: functional

## CC[C@H](C)[C@@H]1NC(=O)c2csc(n2)[C@H]([C@@H](C)CC)NC(=O)c2csc(n2)CNC(=O)c2nc1oc2C [MACROCYCLE]
Plasmodium falciparum [1]
  IC50: 180 nM
Plasmodium falciparum [2]
  Ratio IC50: 4
